Reference: patent US11529319B2, “Methods and compositions for treating neurological conditions” (priority 2017, dated 2022)
Entries after “also recorded” stand apart in the source; their conditions may differ.

Columns and labels:
Mef2c-het mice [1] = experiment: Motor behavioral tests and paw clasping; assay type: in vivo, mouse; conditions: 3-month treatment
From the text: Mef2c heterozygous knockout (Mef2c-het) mice were created by crossing mice carrying the conventional exon 2-deleted allele of Mef2c (Mef2c^Δ2) with their WT littermates. All procedures for maintaining and using these mice were approved by the Institutional Animal Care and Use Committee (IACUC) at the Sanford Burnham Prebys Medical Discovery Institute. In this study, only male mice were used for the behavioral assays to insure uniformity (either with or without drug treatment). Chronic treatment with memantine, NitroSynapsin (both at 4.6 μmol/kg body weight) or vehicle (PBS) was administered via i.p. injection, twice a day for at least 3 months, starting at ˜2.5 weeks of age. […]
Balance was measured by the latency to fall off the elevated (40 cm) horizontal rod (50 cm long) in four 20 sec trials. […] Traction capacity was measured over three 5 s trials as the ability of the animal to raise the hind limbs while remaining suspended by the forepaws grasped around an elevated horizontal bar (2 mm diameter). […] Muscle Strength was determined by one trial of 60 s in which the mice were placed in the middle of the horizontal bar in an upside-down position and the latency until falling down was measured. […] The latency to turn downward and the total time to descend to the floor over 3 trials was recorded.

[2] = system: MeCP2 knockout (KO) mouse model of Rett syndrome; experiment: Rotarod test; assay type: in vivo; conditions: MeCP2 KO mice
Protocol: Mice were placed on the stationary cylinder and the cylinder then slowly accelerated to 10 revolutions/min. The total time at 10 rpm before a fall from the cylinder was recorded.

[3] = system: hippocampal slices of Tsc2+/- mice; experiment: CA1 LTP in acute hippocampal slices by multielectrode array; assay type: cell-based, mouse; conditions: 1-2 μM, 4-hour treatment; monitored 55-65 min after induction; vs vehicle
Protocol: Long-term potentiation (LTP), a form of synaptic plasticity elicited in response to excitatory input and thought to represent an electrical correlate of learning and memory in the hippocampus, was examined. Field recordings in the CA1 region of hippocampal slices were used to investigate the effects of Tsc2 mutation on this form of synaptic plasticity. For this purpose, acute hippocampal slices from one-month-old mice were prepared and field recordings in a microelectrode array (MEA) chamber perfused with artificial cerebrospinal fluid (ACSF) were performed. fEPSPs (field excitatory postsynaptic potentials) were recorded in the CA1 region after evoking LTP via stimulation of the Schaffer collaterals (four repetitions of 100 Hz pulses for one second each). The initial slope of the fEPSP was analyzed to assess LTP. However, with a stronger induction protocol as used here, we observed a decrease in LTP, monitored 60 min after induction.

[4] = system: p38 MAPK/MAPKAPK2/TSC2/mTORC1/S6K1 cascade; experiment: Western blots of eNMDAR-triggered signaling; assay type: cell-based; conditions: compared with Memantine
From the text: This experiment was replicated 4 times with similar results and quantified in FIG. 20C.

Mef2c-het mice [5] = experiment: Three-chamber social interaction test; assay type: in vivo, mouse
From the text: (§1) Mef2c heterozygous knockout (Mef2c-het) mice were created by crossing mice carrying the conventional exon 2-deleted allele of Mef2c (Mef2c^Δ2) with their WT littermates. All procedures for maintaining and using these mice were approved by the Institutional Animal Care and Use Committee (IACUC) at the Sanford Burnham Prebys Medical Discovery Institute. In this study, only male mice were used for the behavioral assays to insure uniformity (either with or without drug treatment). Chronic treatment with memantine, NitroSynapsin (both at 4.6 μmol/kg body weight) or vehicle (PBS) was administered via i.p. injection, twice a day for at least 3 months, starting at ˜2.5 weeks of age. This age was chosen because mice are still juveniles and thus treatment could begin in human at an equivalent stage.
This test was originally developed by the Crawley group for an animal model of autism. Autistic individuals show aberrant reciprocal social interaction, including low levels of social approach and unusual modes of interaction. A social interaction apparatus consisting of a rectangular, three chambered Plexiglas box, with each chamber measuring 20 cm (length)×40.5 cm (width)×22 cm (height) was used. Walls dividing the chamber were clear with small semicircular openings (3.5 cm radius), allowing access into each chamber. The middle chamber was empty and the two outer chambers contained small, round wire cages (Galaxy Cup, Spectrum Diversified Designs, Inc., Streetsboro, Ohio). The mice were habituated to the entire apparatus for 5 min. To assess social interaction, mice were returned to the middle chamber, this time with a stranger mouse (C57BL/6J of the same sex tethered to the wire cage). Time spent in the chamber with the stranger mouse and time spent in the empty wire cage-containing chamber were each recorded for 5 min, as was the number of entries into each chamber. Experimental mice were tested once, and the stranger C57BL/6J mice were used for up to 6 tests.

Mef2c-het mice [6] = experiment: Open field test (locomotor activity); assay type: in vivo, mouse; conditions: chronic treatment, 30-minute test
From the text: as §1
Locomotor activity was measured in polycarbonate cages (42×22×20 cm) placed into frames (25.5×47 cm) mounted with two levels of photocell beams at 2 and 7 cm above the bottom of the cage (San Diego Instruments, San Diego, Calif.). These two sets of beams allowed recording of both horizontal (locomotion) and vertical (rearing) behavior. A thin layer of bedding material was applied to the bottom of the cage. Mice were tested for 30 or 120 min depending on the exact test.

CCC12CC3(N)CC(CC)(C1)CC(O[N+](=O)[O-])(C3)C2 [NitroSynapsin] was tested, and the paw clasping (Mef2c-het mice [1]) was “did not improve the paw clasping phenotype; also recorded: not rescued”, the “rotarod performance (time at 10 rpm before a fall)” value [2] was “improved motor behavior; also recorded: significantly improved motor performance” and the “CA1 LTP in Tsc2+/- hippocampal slices” value [3] was “all improved; also recorded: improved LTP; also recorded: able to reverse deficits in synaptic plasticity; also recorded: improvement of LTP”. For the same compound, the “eNMDAR-triggered signaling that inactivates TSC2 (p38 MAPK-TSC-Rheb-mTORC1-S6K1 pathway)” value [4] was “correction of activity”, the “eNMDAR-triggered signaling that inactivates TSC2 (p38 MAPK-TSC-Rheb-mTORC1-S6K1 pathway)” value ([4]; listed as NitroMemantine) was “to a greater degree than Memantine” and the “social ability: time in chambers, number and duration of visits” value (Mef2c-het mice [5]; Mef2c-het mice, chronic treatment) was “improved this abnormal social behavior; also recorded: rescued aberrant social ability”. For the same compound, the “number of social visits (S1 minus E), NitroSynapsin vs equimolar memantine” value (Mef2c-het mice [5]; Mef2c-het mice, head-to-head comparison) was “demonstrated the superiority of NitroSynapsin; also recorded: significantly greater than that of memantine (M)-treated mice”, the “social behavior of WT mice” value (Mef2c-het mice [5]; WT mice, 3-month treatment) was “did not significantly alter the social behavior of WT mice” and the “open field center time / center activity” value (Mef2c-het mice [6]) was “rescued by chronic treatment with NitroSynapsin; also recorded: rescued by treatment with N”.
